Results: ChEMBL document CHEMBL3045577, “Synthesis and anti-HIV activity evaluation of novel N-arylidene-2-[1-(naphthalen-1-yl)-1H-tetrazol-5-ylthio]acetohydrazides” (Med Chem Res, 2010)

Experiments:
[1] = Selectivity index, ratio of CC50 for human MT4 cells to EC50 for HIV-2 ROD infected in MT4 cells; assay type: toxicity, cell-based; details: read-out: Ratio CC50/EC50
[2] = Selectivity index, ratio of CC50 for human MT4 cells to EC50 for HIV-1 3B infected in MT4 cells; assay type: toxicity, cell-based; details: read-out: Ratio CC50/EC50
[3] = Cytotoxicity against Homo sapiens (human) MT4 cells by MTT assay; assay type: cell-based
[4] = test system: Human immunodeficiency virus 2; experiment: Antiviral activity against Human immunodeficiency virus type 2 (ISOLATE ROD) infected human MT4 cells assessed as inhibition of virus-induced cytopathicity after 4 days by MTT assay; assay type: functional, organism-based; details: Human immunodeficiency virus 2, ISOLATE ROD, MT4, 96 h
[5] = test system: Human immunodeficiency virus 1; experiment: Antiviral activity against Human immunodeficiency virus 1 IIIB infected human MT4 cells assessed as inhibition of virus-induced cytopathicity after 4 days by MTT assay; assay type: functional, organism-based; details: MT4, 96 h

| Compound | selectivity ratio [1] | selectivity ratio [2] | CC50 [3] | EC50 [4] | EC50 [5] |
| --- | --- | --- | --- | --- | --- |
| COc1ccc(/C=N/NC(=O)CSc2nnnn2-c2cccc3ccccc23)cc1OC | < 1 | ≤ 5 | 191 µM | > 191 µM | ≥ 36.3 µM |
| O=C(CSc1nnnn1-c1cccc2ccccc12)N/N=C/c1ccco1 | 1 | 1 | > 330 µM | > 330 µM | > 330 µM |
| Cc1cn([C@H]2C[C@H](N=[N+]=[N-])[C@@H](CO)O2)c(=O)[nH]c1=O [ZIDOVUDINE] | – | > 6190 | > 93.5 µM | – | – |
| COc1cccc(/C=N/NC(=O)CSc2nnnn2-c2cccc3ccccc23)c1OC | < 1 | < 1 | 192 µM | > 192 µM | > 192 µM |
| COc1cc(/C=N/NC(=O)CSc2nnnn2-c2cccc3ccccc23)ccc1O | 1 | 1 | > 288 µM | > 288 µM | > 288 µM |
| O=C(CSc1nnnn1-c1cccc2ccccc12)N/N=C/c1ccccc1 | < 1 | ≤ 10 | 216 µM | > 229 µM | ≥ 21.4 µM |
| Cc1ccnc2c1NC(=O)c1cccnc1N2C1CC1 [NEVIRAPINE] | – | – | > 15 µM | – | – |
| O=C(CSc1nnnn1-c1cccc2ccccc12)N/N=C/c1ccc([N+](=O)[O-])cc1 | 1 | 1 | ≥ 261 µM | > 261 µM | > 261 µM |
| CN(C)c1ccc(/C=N/NC(=O)CSc2nnnn2-c2cccc3ccccc23)cc1 | 1 | 1 | > 290 µM | > 290 µM | > 290 µM |
| Cc1cccc(/C=N/NC(=O)CSc2nnnn2-c2cccc3ccccc23)c1 | < 1 | < 1 | 269 µM | > 269 µM | > 269 µM |
| COc1ccc(O)c(/C=N/NC(=O)CSc2nnnn2-c2cccc3ccccc23)c1 | < 1 | < 1 | 4.51 µM | > 4.51 µM | > 4.51 µM |
| COc1ccc(/C=N/NC(=O)CSc2nnnn2-c2cccc3ccccc23)c(OC)c1 | < 1 | < 1 | 28.3 µM | > 28.3 µM | > 28.3 µM |
| CC(C)Nc1cccnc1N1CCN(C(=O)c2cc3cc(NS(C)(=O)=O)ccc3[nH]2)CC1 [DELAVIRDINE] | – | > 12 | > 3.83 µM | – | – |
| O=C(CSc1nnnn1-c1cccc2ccccc12)N/N=C/c1cccc(Cl)c1 | < 1 | < 1 | 240 µM | > 240 µM | > 240 µM |
| O=C(CSc1nnnn1-c1cccc2ccccc12)N/N=C/c1ccc(F)cc1 | 1 | 1 | > 308 µM | > 308 µM | > 308 µM |
| O=C(CSc1nnnn1-c1cccc2ccccc12)N/N=C/c1cccs1 | 1 | 1 | > 317 µM | > 317 µM | > 317 µM |
| O=C1Nc2ccc(Cl)cc2[C@@](C#CC2CC2)(C(F)(F)F)O1 [EFAVIRENZ] | – | > 1430 | > 6.34 µM | – | – |
| O=C(CSc1nnnn1-c1cccc2ccccc12)N/N=C/c1ccccc1F | 1 | 1 | ≥ 118 µM | > 118 µM | > 118 µM |
| O=C(CSc1nnnn1-c1cccc2ccccc12)N/N=C/c1ccc(O)cc1 | 1 | > 9 | > 309 µM | > 309 µM | 31.6 µM |
| O=C(CSc1nnnn1-c1cccc2ccccc12)N/N=C/c1ccc(Cl)cc1 | 1 | 1 | > 296 µM | > 296 µM | > 296 µM |
| O=C(CSc1nnnn1-c1cccc2ccccc12)N/N=C/c1ccccc1O | < 1 | < 1 | 4.85 µM | > 4.85 µM | > 4.85 µM |
| O=C(CSc1nnnn1-c1cccc2ccccc12)N/N=C/c1ccccc1Cl | < 1 | < 1 | 69.7 µM | > 69.7 µM | > 69.7 µM |
| O=C(CSc1nnnn1-c1cccc2ccccc12)N/N=C/c1cccc(O)c1 | < 1 | 6 | 169 µM | > 169 µM | 29.6 µM |
| COc1ccc(/C=N/NC(=O)CSc2nnnn2-c2cccc3ccccc23)cc1 | 1 | 1 | > 299 µM | > 299 µM | > 299 µM |
